Reference: patent publication US20020120098A1, “Enhanced stimulation of erythropoiesis” (priority 1996, published 2002)

Assays:
Type in all cases: cell-based, human
CFU-E [1] = assay: Colony formation assay (CFA), cord blood LDMNC: CFU-E colonies; conditions: for fold increase in CFU-E at 5% O2: 5% O2, 2 U/ml Epo, 1.0 mg/ml HAo or HEMOLINK, 100 μM hemin, relative to untreated controls at ambient O2; for CFU-E progenitor number, fold increase: 2 U/ml Epo, ambient O2, vs vehicle control
Protocol: (§1) This technique, referred to as the colony formation assay (CFA), is the most widely used biological assay to identify and enumerate erythroid progenitors present in hematopoietic tissue such as blood and bone marrow. Cell populations containing erythroid progenitors are plated in semi-solid suspensions of methyl cellulose, agar, low melting agarose or related substances in nutrient culture medium containing 1-3 U/ml Epo and 10 ng/ml IL-3 to specifically stimulate erythroid progenitors. Plates are incubated at 37° C. for 14 days during which time the erythroid progenitors form characteristic hemoglobinized (red) colonies. Two distinct but related erythroid progenitors can be distinguished based on colony size and morphology: BFU-E, the most primitive recognizable erythroid progenitor forms large multilobular colonies whereas the more mature CFU-E forms smaller spherical colonies.
(§2) Adult hemoglobin was purified according to U.S Pat. Nos. 5,439,591 and 5,545,328 to obtain HAo and HEMOLINK™ was prepared from HAo according to U.S. Pat. No. 5,532,352. Human umbilical cord blood intended for discard was collected from the umbilical vein of placentas immediately postpartum into 10 ml vacutainer tubes containing 143 USP units/ml sodium heparin. Low density mononuclear cells were separated from red blood cells by centrifugation over a 1.077 g/ml density gradient Cells removed from the plasma/density gradient interface were incubated overnight in a tissue culture flask with 10 ml cell culture medium containing 10% fetal bovine serum, and non-adherent LDMNC were further purified with an additional density gradient step. The LDMNC were then plated into colony formation assays (CFA) on the second day of isolation. In the CFA, LDMNC were plated at a density of 1×10^5 cells/ml in Iscoves modified Dulbeccos cell culture medium containing 0.8% methyl-cellulose, 30% fetal bovine serum, 1% bovine serum albumin, 0.1 mM 2-mercaptoethanol and 2 mM L-glutamine. Unless indicated otherwise, under standard CFA conditions 2 U/ml Epo and 10 ng/ml IL-3 are added to the formulation to stimulate hematopoietic progenitor growth, specifically BFU-E, CFU-E and CFU-GM.
(§3) Each condition was tested in duplicate in from 2-18 independent experiments. Cultures were maintained in a humidified incubator at 37° C., 5% CO2 and ambient oxygen tensions. The number of hematopoietic progenitors was scored between days 13-15 by counting the number and types of colonies present.
(§4) Erythroid progenitor colony formation assays were conducted as described in Example 1 except that cultures were incubated at either ambient oxygen tensions (˜20% O2) or 5% O2. The reduced oxygen tension of 5% O2 approximates the physiological intravascular oxygen tension in mammals. The mean fold increase in cord blood BFU-E, CFU-E and CFU-GM progenitor number at 5% O2 produced by 1.0 mg/ml HAo (15.6 μM; n=11) or HEMOLINK™ (15.6 μM; n=6), 100 μM hemin (n=10), 250 μM FeCl3 (n=6) or no addition (n=17-18), is shown FIG. 2. Results are expressed relative to control cells treated only with respective vehicles and cultured at ambient oxygen tensions (˜20% O2; fold expansion=1.0; *p<0.05, **p<0.01).
(§5) Erythroid progenitor colony formation assays were conducted as described in Example 1 except that cultures were initiated in the presence of Epo concentrations ranging from 0-2 U/ml. The mean fold increase in cord blood BFU-E, CFU-E and CFU-GM progenitor number produced by 1.0 mg/ml HAo (15.6 μM; n=9) or HEMOLINK™ (15.6 μM; n=6), 100 μM hemin (n=8), 250 μM FeCl3 (n=6), or no addition (n=9-10) in the presence of reduced Epo concentrations (0.2 U/ml) is shown in FIG. 3. Cultures were maintained at ambient oxygen tensions (˜20% O2) for 14 days. Results are expressed relative to control cells at 2 U/ml Epo treated only with the respective vehicles (solid line at fold expansion=1.0; *p<0.05, **p<0 01). Erythroid progenitor colonies were undetectable in the absence of Epo. […]

CFU-GM = assay: Colony formation assay (CFA), cord blood LDMNC: CFU-GM colonies; conditions: 2 U/ml Epo; for CFU-GM progenitor number, fold increase: ambient O2, vs vehicle control; for effect on CFU-GM numbers (in words): ambient O2
Protocol: as §1, §2, §3
The effect of the various additives on the inhibitory effect of succinylacetone (SA), a heme synthesis inhibitor, on erythroid progenitors was determined. Primary LDMNC were cultured in methyl cellulose as described in Example 1. Cord blood LDMN were plated in the presence of 1.0 mg/ml HAo (15.6 μM; n=12) or HEMOLINK™ (15.6 μM; n=5), 100 μM hemin (n=12), 250 μM FeCl3 (n=11) or no addition (n=12), in absence or presence of 0.5 mM SA. Cultures were maintained in a humidified chamber at 37° C., 5% CO2, and ambient oxygen tensions for 14 days.
HEMOLINK™ was evaluated for its ability to protect erythroid progenitor cells from toxicity due to ganciclovir. Cord blood LDMNC were set up in CFAs in the presence and absence of 1 mg/ml HEMOLINK™ plus 0, 0.1, 1.0, 10, 50 or 100 μM ganciclovir. Conditions for the CFA were similar to those described in Examples 1-4. […] All data are expressed relative to the number of colonies of control plates without HEMOLINK™. The hematopoietic progenitors display different sensitivities to ganciclovir. CFU-E were unaffected by 1 μM ganciclovir. However, a similar inhibition of BFU-E occurs at a 50-fold lower dose of ganciclovir (1 μM). […] Due to the difficulty in scoring CFU-GM in the presence of hemoglobin precipitates, as previously noted, they could not be accurately measured under these conditions. Thus, HEMOLINK™ reduces toxicity of ganciclovir to erythroid progenitors with the most pronounced effect on BFU-E cells.

erythroid progenitors = assay: Colony formation assay (CFA), cord blood LDMNC: erythroid progenitor colonies overall; conditions: for growth of erythroid progenitor colonies in the absence of Epo: 0 U/ml Epo; for size and colour of erythroid colonies: 2 and 0.2 U/ml Epo, ambient or 5% O2, 1.0 mg/ml HAo or HEMOLINK, 100 μM hemin, day 14
Protocol: as §1, §2, §3, §4, §5

BFU-E = assay: Colony formation assay (CFA), cord blood LDMNC: BFU-E colonies; conditions: 5% O2, 0.2 U/ml Epo; 100 μM hemin, 1.0 mg/ml HAo or HEMOLINK; relative to controls at 2 U/ml Epo, ambient O2
CFU-E [2] = assay: Colony formation assay (CFA), cord blood LDMNC: CFU-E colonies; conditions: 5% O2, 0.2 U/ml Epo; 100 μM hemin, 1.0 mg/ml HAo or HEMOLINK; relative to controls at 2 U/ml Epo, ambient O2
[3] = dose 1000 μg/ml, underestimated due to hemoglobin precipitates

Row | Compound | fold increase in CFU-E at 5% O2 (CFU-E [1]) [fold] | CFU-GM progenitor number, fold increase (CFU-GM; [3]) | growth of erythroid progenitor colonies in the absence of Epo (erythroid progenitors) | size and colour of erythroid colonies (erythroid progenitors) | fold increase in BFU-E at 0.2 U/ml Epo and 5% O2 (BFU-E) [fold] | fold increase in CFU-E at 0.2 U/ml Epo and 5% O2 (CFU-E [2]) [fold] | CFU-E progenitor number, fold increase (CFU-E [1]; dose 1.0 μM) [fold] | CFU-E progenitor number, fold increase (CFU-E [1]; dose 10 μM) | CFU-E progenitor number, fold increase (CFU-E [1]; dose 250 μM) [fold] | effect on CFU-GM numbers (in words) (CFU-GM) | CFU-GM progenitor number, fold increase (CFU-GM; dose 1.0 μM) [fold] | CFU-GM progenitor number, fold increase (CFU-GM; dose 10 μM) [fold] | CFU-GM progenitor number, fold increase (CFU-GM; dose 100 μM) [fold] | CFU-GM progenitor number, fold increase (CFU-GM; dose 250 μM) [fold] | also measured
1 | HEMOLINK™: chemically crosslinked hemoglobin prepared by treating human hemoglobin with a polyaldehyde (O-raffinose) | ~3 | *0.6 fold | could not support the growth of erythroid progenitor colonies in the absence of Epo | larger and redder | 2.6 | 1.7 | – | – | – | – | – | – | – | – | protection of CFU-E from ganciclovir toxicity (CFU-E [1]; 1 mg/ml HEMOLINK plus 0-100 μM ganciclovir): protects CFU-E
2 | [Cl][Fe]([Cl])[Cl] [FeCl3] | – | – | – | – | – | – | 1.0 | 1.2 fold | 1.1 | unaffected | 1.2 | 1.0 | 0.8 | 1.3 | number of erythroid colonies at 0.2 U/ml Epo and 5% O2 (in words) (erythroid progenitors; 5% O2, 0.2 U/ml Epo, 250 μM FeCl3): did not significantly increase the number of erythroid colonies; fold expansion of erythroid progenitors at 5% O2 (in words) (erythroid progenitors; 5% O2, 2 U/ml Epo, 250 μM FeCl3): did not increase the fold expansion of erythroid progenitors beyond that of the untreated controls at 5% O2
3 | HAo: adult human hemoglobin obtained from red blood cells and purified by displacement chromatography; uncross linked product | ~3 | **0.5 fold | could not support the growth of erythroid progenitor colonies in the absence of Epo | larger and redder | 3.3 | 2.1 | – | – | – | does not stimulate CFU-GM | – | – | – | – | CFU-E progenitor number, fold increase (CFU-E [1]; dose 10 μg/ml): 1.2 fold; CFU-E progenitor number, fold increase (CFU-E [1]; dose 100 μg/ml): 1.5 fold; CFU-E progenitor number, fold increase (CFU-E [1]; dose 500 μg/ml): *1.4 fold; CFU-GM progenitor number, fold increase (CFU-GM; dose 10 μg/ml): 1.4 fold; CFU-GM progenitor number, fold increase (CFU-GM; dose 100 μg/ml): 1.5 fold; CFU-GM progenitor number, fold increase (CFU-GM; dose 500 μg/ml): 1.2 fold; concentration at which significant stimulation of erythroid progenitor colony formation is observed (erythroid progenitors; 2 U/ml Epo, ambient O2): 7.8 µM
4 | C=CC1=C(C)C2=Cc3c(C=C)c(C)c4[n]3[Fe-2]35([Cl])[n]6c(c(C)c(CCC(=O)O)c6=CC6=[N+]3C(=C4)C(C)=C6CCC(=O)O)=CC1=[N+]25 [hemin] | ~3 | – | could not support the growth of erythroid progenitor colonies in the absence of Epo | mostly smaller and less red in color | 4 | 3.2 | 1.2 | *1.6 fold | 2.2 | unaffected | 1.5 | 1.4 | 1.0 | 1.4 | CFU-E progenitor number, fold increase (CFU-E [1]; dose 64 μM): 1.8 fold; CFU-GM progenitor number, fold increase (CFU-GM; dose 64 μM): 1.2 fold
